Reference: patent publication US20220041559A1, “BENZO-AND PYRIDO-PYRAZOLES AS PROTEIN KINASE INHIBITORS” (ROTTAPHARM BIOTECH S.R.L., priority 2019, published 2022)
pIC50: −log10 of the molar value.

Legend:
[1] = target: T1, YES kinase (Homo sapiens, UniProt P07947); assay: ADP-Glo in vitro kinase assay, YES kinase inhibition; assay type: biochemical; settings: ATP 50 μM, 30 minutes at room temperature
T1 construct: purchased Thermo Fisher
Method: The ADP-Glo™ Kinase Assay (Promega), monitoring ADP produced in the kinase reaction, was performed in two steps. In the first one, after the kinase reaction, the ADP-Glo™ Reagent is added to terminate the kinase reaction and deplete the remaining ATP. In the second step, the Kinase Detection Reagent is added to simultaneously convert ADP to ATP (ATPn or newly synthesized ATP) and introduce luciferase and luciferin, allowing the ATPn to be measured (luciferase/luciferin reaction). The amount of light generated correlates with the amount of ATPn (indirectly with the ADP produced in kinase reaction).
Kinase reaction was performed in 10 μl in a white 384-well plate, inhibitor solutions in DMSO/Kinase buffer (40 mM Tris-Cl, 20 mM MgCl2, 0.1 mg/ml BSA, 50 μM DTT, pH 7.5) and YES kinase in Kinase buffer (Thermo Fisher, 0.5 ng/μl final concentration in assay) were pre-incubate 15 minutes at room temperature. At the kinase concentration selected, a signal-to negative control ratio >10 was calculated, according to supplier indication. […]
The range of inhibitor concentrations was from 10^−10 M up to 10^−5 M (final concentration in assay) and each experimental point was performed in duplicate. […] The luminescence was measured with a plate-reading luminometer (Envision 2104 Multilabel reader, PerkinElmer). […]

[2] = system: U87MG-luc tumor cells; assay: Reduction of tumor growth in intracranial U87MG-luc glioblastoma bearing mice; assay type: in vivo, athymic Nude mice; settings: 50 mg/kg orally once a day, days 9-19
Method: Human U87MG cells (Glioblastoma Cancer cell line) were engineered to express the luciferase gene (U87MG-luc). Cultured U87MG-luc tumor cells were intracranially injected in athymic Nude mice. Eight days from injection mice were randomised on the basis of luminescence values emitted by luciferase-expressing U87M-luc tumor cells and divided into 2 treatment groups. The treatment started on day 9 and lasted 10 days. Mice were orally dosed with vehicle or with compound 5 of invention (50 mg/kg, once a day). The tumor growth was evaluated by real-time Bioluminescence Imaging at the end of the treatments period (day 19) and on day 26 and 33, form the cell injection. The tumour growth was reduced in mice treated with compound 5 compared to mice treated with vehicle alone.

T1 sequence (P07947 whole entry): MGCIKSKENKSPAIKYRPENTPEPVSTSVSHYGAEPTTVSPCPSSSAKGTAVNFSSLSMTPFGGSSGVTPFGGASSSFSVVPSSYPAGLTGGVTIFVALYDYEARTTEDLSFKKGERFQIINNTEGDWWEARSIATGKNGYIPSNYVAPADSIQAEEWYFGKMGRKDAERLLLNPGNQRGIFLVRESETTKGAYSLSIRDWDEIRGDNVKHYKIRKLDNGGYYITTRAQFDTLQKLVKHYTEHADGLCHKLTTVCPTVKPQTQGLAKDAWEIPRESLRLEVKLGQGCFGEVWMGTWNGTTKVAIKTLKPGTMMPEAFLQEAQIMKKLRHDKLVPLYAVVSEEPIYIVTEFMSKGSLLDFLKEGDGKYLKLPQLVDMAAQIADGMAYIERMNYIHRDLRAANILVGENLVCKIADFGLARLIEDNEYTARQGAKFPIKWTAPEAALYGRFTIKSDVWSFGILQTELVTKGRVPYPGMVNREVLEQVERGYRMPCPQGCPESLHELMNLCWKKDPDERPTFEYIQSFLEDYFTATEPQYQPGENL

Structure (SMILES): CN1CCC(c2ccc(C(=O)Nc3n[nH]c4nc(Nc5ccccc5F)ccc34)cc2)CC1 [Compound 5, N-(6-((2-fluorophenyl)amino)-1H-pyrazolo[3,4-b]pyridin-3-yl)-4-(1-methylpiperidin-4-yl)benzamide]
- pIC50 [1]: 8.44
- inhibition of tumour growth (percentage of radiance inhibition) ([2]; day 19): 24.9%
- inhibition of tumour growth (percentage of radiance inhibition) ([2]; day 26): 34.4%
- inhibition of tumour growth (percentage of radiance inhibition) ([2]; day 33): 60.4%
